Results on 30 molecules are retold here after US20060116316A1, “Heterocyclic inhibitors of IRES-mediated translation and methods of use thereof” (priority 2004, published 2006).

The subject of this assay is HCV IRES. Briefly: HCV IRES reporter FACS assay (GFP expression ratio, intein-expressed cyclic peptides). Format: cell-based, Hepatitis C virus. To be noted: ratio at least 1.20 = significant activity. The source says:
[The source words this procedure for another variant and says it was used here with some conditions changed.] Cells producing libraries of cyclic 3-mers and 4-mers (i.e., libraries of cyclic peptides that contain 3 or 4 amino acid residues) were constructed using methods identical to those of Kinsella et al (J Biol. Chem. 2002 277:37512-8), except different oligonucleotides were used for library construction. Clones from this library were screened in an assay shown in FIG. 2 to identify IRES-inhibitory compounds.
In summary, separate cyclic 3-mer and cyclic 4-mer libraries were constructed such that each peptide of the library contained a fixed Ser, Thr or Cys residue (at position 1) and the remaining residues were randomized. For library construction, degenerate oligonucleotides of sequence 5′-[…](AGC/ACC/TGC)(NNK)2 or 3 TGCATCAGCGGCGACAG-3′ were annealed to the primer 5′-[…]-3′ and extended using the Expand PCR kit (Roche Molecular Biochemicals). The double-stranded DNA insert was digested and inserted into the BclI/DrdI sites of DnaBO-e-BFP (ACUC). The plasmid libraries were electroporated into ElectroMAX DH 10B competent E. coli (Invitrogen) for amplification on LB+amp agar medium. […] Expression of the intein is detected by detecting BFP expression. Expression of the intein (and the cyclic peptide produced by the intein) is suppressible by addition of exogenous doxycycline. The amino acid sequence of the junctions of the intein scaffold used in making the 3-mer library is Val-His-Asn-X3 or 4-Cys-Ile-Ser, where X3 or 4 are three or four contiguous amino acids.
Infectious retroviral particles were produced by transfection of 15 µg of each library (as described in Swift et al, (1999). Current Protocols in Immunology Vol. 10.17C, pp. 1-17, Freeman, N.Y.) into approximately 5×10^6 Phoenix-A packaging cells. Each resulting library of retroviral particles was then used to infect 5×10^6 BJAB-S3A11 reporter cells and a FACS based selection was carried out to isolate cells with reduced HCV-IRES reporter output.
In detail, referring to FIG. 2, the cells used in the assay contained an IRES-dependent reporter system. […]. Also present in the cells is a control reporter system for assaying the activity of 5′ cap-dependent translation (the mechanism by which most cellular proteins are normally translated). The control reporter system contains a CMV promoter that drives the transcription of an RNA containing 5′ cap-dependent UTR, operably linked to an RNA encoding RFP (red fluorescent protein). Translation of RFP is dependent on the activity of the 5′ cap-dependent UTR.
Cells containing both the cyclic compound library and the reporter systems described above were first screened for survival upon exposure to diptheria toxin, and then screened by FACS to identify cells that had reduced GFP expression, as compared to RFP expression. Cells were expanded and replica-plated and grown in the presence or absence of dox (100 ng/ml) for four days. Plates were stimulated with IL-4 and GFP expression (relative to RFP) was monitored by flow cytometry. The IRES-inhibitory activity of a peptide is evaluated by calculating the ratio of the geometric mean of GFP expression of peptide positive cells (“peptide pos+” cells i.e., cells not contacted with dox) to the geometric mean of GFP expression of peptide negative cells (“peptide pos−” cells i.e., cells contacted with dox).
Cyclic peptides assigned higher scores have a greater IRES-inhibitory activity.
The number shown in parentheses after each of the amino acid sequences is the IRES-inhibitory activity ratio, as discussed above.
Background: Flow cytometry measures light scatter and fluorescence of single cells or particles in a stream.

Where [1] appears, read: BJAB-S3A11 reporter cells, +/- dox 100 ng/ml four days, library intein junction Val-His-Asn-X1X2X3-Cys-Ile-Ser.
The mark [2] stands for this setting: 3-mers from mutant intein scaffold, junction Val-His-Asn-X1X2X3-Trp-Ile-Ser.
[3] abbreviates: 3-mers from mutant intein scaffold, junction Val-His-Tyr-X1X2X3-Cys-Ile-Ser.

Where a SMILES comes first, the peptide text is derived from it.

In the case of `C[C@@H]1NC(=O)[C@H](CS)NC(=O)[C@H](Cc2c[nH]c3ccccc23)NC1=O` [cyclo-CAW, cyclo[CAW]] (cyclo(Ala-Trp-Cys)), the “IRES-inhibitory activity ratio (geometric mean GFP expression, peptide positive cells / peptide negative cells)” value under setting [1] came to 1.37.
Same read-out and setting: then `CSCC[C@@H]1NC(=O)[C@H](CS)NC(=O)[C@H](Cc2c[nH]c3ccccc23)NC1=O` [cyclo-CMW, cyclo[CMW]] (cyclo(Cys-Met-Trp)), with 1.29.
Take `O=C1N[C@@H](Cc2c[nH]c3ccccc23)C(=O)N[C@@H](Cc2c[nH]c3ccccc23)C(=O)N[C@H]1CS` [cyclo-CWW, cyclo[CWW]] (cyclo(Cys-Trp-Trp)): under setting [1], the “IRES-inhibitory activity ratio (geometric mean GFP expression, peptide positive cells / peptide negative cells)” value worked out at 1.41.
The same measure, in the same setting: next, `O=C1N[C@@H](Cc2ccc(O)cc2)C(=O)N[C@@H](Cc2c[nH]c3ccccc23)C(=O)N[C@H]1CS` [cyclo-CYW, cyclo[CYW]] (cyclo(Cys-Tyr-Trp)): 1.3.
In the case of `C[C@@H]1NC(=O)[C@H](CO)NC(=O)[C@H](Cc2ccccc2)NC1=O` [cyclo-SAF, cyclo[SAF]] (cyclo(Ala-Phe-Ser)), the “IRES-inhibitory activity ratio (geometric mean GFP expression, peptide positive cells / peptide negative cells)” value under setting [2] stood at 1.88.
For `CCC(C)[C@@H]1NC(=O)[C@H](C)NC(=O)[C@H](CO)NC1=O` (stereo partly drawn) [cyclo-SAI, cyclo[SAI]], under setting [2], the “IRES-inhibitory activity ratio (geometric mean GFP expression, peptide positive cells / peptide negative cells)” value was found to be 1.30.
As to `C[C@@H]1NC(=O)[C@H](CO)NC(=O)[C@H](CCCCN)NC1=O` [cyclo-SAK, cyclo[SAK]] (cyclo(Ala-Lys-Ser)), under setting [2], the “IRES-inhibitory activity ratio (geometric mean GFP expression, peptide positive cells / peptide negative cells)” value amounted to 1.3.
Consider `CSCC[C@@H]1NC(=O)[C@H](C)NC(=O)[C@H](CO)NC1=O` [cyclo-SAM, cyclo[SAM]] (cyclo(Ala-Met-Ser)), for which the “IRES-inhibitory activity ratio (geometric mean GFP expression, peptide positive cells / peptide negative cells)” value under setting [3] was determined as 1.36.
As to `C[C@@H]1NC(=O)[C@H](CO)NC(=O)[C@H](CCC(N)=O)NC1=O` [cyclo-SAQ, cyclo[SAQ]] (cyclo(Ala-Gln-Ser)), the “IRES-inhibitory activity ratio (geometric mean GFP expression, peptide positive cells / peptide negative cells)” value under setting [2] was 1.4.
As to `C[C@@H]1NC(=O)[C@H](CO)NC(=O)[C@H]([C@@H](C)O)NC1=O` [cyclo-SAT, cyclo[SAT]] (cyclo(Ala-Thr-Ser)), the “IRES-inhibitory activity ratio (geometric mean GFP expression, peptide positive cells / peptide negative cells)” value under setting [3] was found to be 1.21.
Take `CC(C)[C@@H]1NC(=O)[C@H](C)NC(=O)[C@H](CO)NC1=O` [cyclo-SAV, cyclo[SAV]] (cyclo(Ala-Val-Ser)): the “IRES-inhibitory activity ratio (geometric mean GFP expression, peptide positive cells / peptide negative cells)” value under setting [3] stood at 2.65.
Consider `C[C@@H]1NC(=O)[C@H](CO)NC(=O)[C@H](Cc2c[nH]c3ccccc23)NC1=O` [cyclo-SAW, cyclo[SAW]] (cyclo(Ala-Trp-Ser)), for which the “IRES-inhibitory activity ratio (geometric mean GFP expression, peptide positive cells / peptide negative cells)” value under setting [1] is 1.21.
Consider `C[C@@H]1NC(=O)[C@H](CO)NC(=O)[C@H](Cc2ccc(O)cc2)NC1=O` [cyclo-SAY, cyclo[SAY]] (cyclo(Ala-Tyr-Ser)), for which the “IRES-inhibitory activity ratio (geometric mean GFP expression, peptide positive cells / peptide negative cells)” value under setting [3] turned out to be 1.95.
Take `O=C1N[C@@H](CS)C(=O)N[C@@H](Cc2c[nH]c3ccccc23)C(=O)N[C@H]1CO` [cyclo-SCW, cyclo[SCW]] (cyclo(Cys-Trp-Ser)): the “IRES-inhibitory activity ratio (geometric mean GFP expression, peptide positive cells / peptide negative cells)” value under setting [2] is on record as 2.01.
Regarding `CC(C)[C@@H]1NC(=O)[C@H](CC(=O)O)NC(=O)[C@H](CO)NC1=O` [cyclo-SDV, cyclo[SDV]] (cyclo(Asp-Val-Ser)), the “IRES-inhibitory activity ratio (geometric mean GFP expression, peptide positive cells / peptide negative cells)” value under setting [3] worked out at 1.23.
In the case of `O=C(O)C[C@@H]1NC(=O)[C@H](CO)NC(=O)[C@H](Cc2c[nH]c3ccccc23)NC1=O` [cyclo-SDW, cyclo[SDW]] (cyclo(Asp-Trp-Ser)), the “IRES-inhibitory activity ratio (geometric mean GFP expression, peptide positive cells / peptide negative cells)” value under setting [2] is on record as 1.85.
Regarding `CC(C)[C@@H]1NC(=O)[C@H](CCC(=O)O)NC(=O)[C@H](CO)NC1=O` [cyclo-SEV, cyclo[SEV]] (cyclo(Glu-Val-Ser)), the “IRES-inhibitory activity ratio (geometric mean GFP expression, peptide positive cells / peptide negative cells)” value under setting [3] was found to be 1.93.
Turning to `O=C(O)CC[C@@H]1NC(=O)[C@H](CO)NC(=O)[C@H](Cc2c[nH]c3ccccc23)NC1=O` [cyclo-SEW, cyclo[SEW]] (cyclo(Glu-Trp-Ser)), the “IRES-inhibitory activity ratio (geometric mean GFP expression, peptide positive cells / peptide negative cells)” value under setting [2] came out at 2.00.
Take `CC(C)[C@@H]1NC(=O)[C@H](Cc2ccccc2)NC(=O)[C@H](CO)NC1=O` [cyclo-SFV, cyclo[SFV]]: the “IRES-inhibitory activity ratio (geometric mean GFP expression, peptide positive cells / peptide negative cells)” value under setting [1] is recorded as 1.33.
Take `O=C1N[C@@H](Cc2ccccc2)C(=O)N[C@@H](Cc2c[nH]c3ccccc23)C(=O)N[C@H]1CO` [cyclo-SFW, cyclo[SFW]] (cyclo(Phe-Trp-Ser)): the “IRES-inhibitory activity ratio (geometric mean GFP expression, peptide positive cells / peptide negative cells)” value under setting [1] was 1.55.
As to `N=C(N)NCCC[C@@H]1NC(=O)[C@H](Cc2c[nH]c3ccccc23)NC(=O)[C@H](Cc2ccccc2)NC(=O)[C@H](CO)NC1=O` [cyclo-SFWR, cyclo[SFWR]] (cyclo(FWRS)), the “IRES-inhibitory activity ratio (geometric mean GFP expression, peptide positive cells / peptide negative cells)” value (4-mers from mutant intein scaffold, junction Val-His-Asn-X1X2X3X4-Cys-Ser) was 1.49.
For `O=C1CNC(=O)[C@H](CO)NC(=O)[C@H](Cc2c[nH]c3ccccc23)N1` [cyclo-SGW, cyclo[SGW]] (cyclo(Gly-Trp-Ser)), the “IRES-inhibitory activity ratio (geometric mean GFP expression, peptide positive cells / peptide negative cells)” value under setting [2] is on record as 1.94.
For the molecule `CC(C)[C@@H]1NC(=O)[C@H](Cc2cnc[nH]2)NC(=O)[C@H](CO)NC1=O` [cyclo-SHV, cyclo[SHV]] (cyclo(His-Val-Ser)), under setting [3], the “IRES-inhibitory activity ratio (geometric mean GFP expression, peptide positive cells / peptide negative cells)” value turned out to be 1.91.
Take `O=C1N[C@@H](Cc2cnc[nH]2)C(=O)N[C@@H](Cc2c[nH]c3ccccc23)C(=O)N[C@H]1CO` [cyclo-SHW, cyclo[SHW]] (cyclo(His-Trp-Ser)): the “IRES-inhibitory activity ratio (geometric mean GFP expression, peptide positive cells / peptide negative cells)” value under setting [2] was 2.26.
In the case of `CCC(C)[C@@H]1NC(=O)[C@H](CO)NC(=O)[C@H](C(C)C)NC1=O` (stereo partly drawn) [cyclo-SIV, cyclo[SIV]], the “IRES-inhibitory activity ratio (geometric mean GFP expression, peptide positive cells / peptide negative cells)” value under setting [1] turned out to be 1.4.
For the molecule `CCC(C)[C@@H]1NC(=O)[C@H](CO)NC(=O)[C@H](Cc2c[nH]c3ccccc23)NC1=O` (stereo partly drawn) [cyclo-SIW, cyclo[SIW]], under setting [1], the “IRES-inhibitory activity ratio (geometric mean GFP expression, peptide positive cells / peptide negative cells)” value turned out to be 1.36.
On the same count and under the same terms, next, `CC(C)[C@@H]1NC(=O)[C@H](CCCCN)NC(=O)[C@H](CO)NC1=O` [cyclo-SKV, cyclo[SKV]] (cyclo(Lys-Val-Ser)): 1.38; `CC(C)C[C@@H]1NC(=O)[C@H](CO)NC(=O)[C@H](Cc2c[nH]c3ccccc23)NC1=O` [cyclo-SLW, cyclo[SLW]] (cyclo(Leu-Trp-Ser)): 1.27.
Still for that read-out and setting: next, `CSCC[C@@H]1NC(=O)[C@H](CO)NC(=O)[C@H](C(C)C)NC1=O` [cyclo-SMV, cyclo[SMV]] (cyclo(Met-Val-Ser)): 1.36; `CSCC[C@@H]1NC(=O)[C@H](CO)NC(=O)[C@H](Cc2c[nH]c3ccccc23)NC1=O` [cyclo-SMW, cyclo[SMW]] (cyclo(Met-Trp-Ser)): 1.28.
